Results reported in US20240132513A1, “BENZAZEPINE DERIVATIVES, COMPOSITIONS, AND METHODS FOR TREATING COGNITIVE IMPAIRMENT” (AGENEBIO, INC., priority 2022, published 2024).
Where two headings read alike, the source gives them in different places.

Experiments:
[1] = target: α5β3γ2 GABAA R (Homo sapiens, UniProt P18507+P31644); experiment: Binding activity on GABAA R: inhibition of [3H]Ro15-1788 binding, α5 containing receptor
Procedure, shortened: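 Membranes from dexamethasone-induced (0.5 μM, 1 day) Ltk cells stably expressing α5β3γ2 receptors, 0.2 mg/ml protein, incubated with [3H]Ro15-1788 for 1 h at 4 °C in 50 mM KH2PO4/1 mM EDTA/0.2 M KCl, pH 7.4. Nonspecific binding with 10 μM diazepam; bound ligand by GF/B filtration and scintillation counting, triplicates.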

[2] = target: T1, GABAA R (α5β2γ2) (Homo sapiens, UniProt P18507+P31644); experiment: Positive allosteric modulator activity: potentiation of EC20 GABA current in oocytes; type: cell-based
T1 construct: expressed in transfected cells
Procedure, shortened: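 Xenopus oocytes injected with 1 ng α5:β2:γ2 cDNA (1:1:10 by weight), tested day 2, voltage-clamped at −60 mV under MBS superfusion.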

[3] = read-out: GABA α5 Functional Data: potentiation, @ 100 nM, EC20 GABA, ranges of the column heads
[4] = ranges of the column heads, [3H]Ro15-1788, Ltk cell membranes
[5] = read-out: GABA α5 Functional Data: potentiation

T1 sequence (P31644 32-462): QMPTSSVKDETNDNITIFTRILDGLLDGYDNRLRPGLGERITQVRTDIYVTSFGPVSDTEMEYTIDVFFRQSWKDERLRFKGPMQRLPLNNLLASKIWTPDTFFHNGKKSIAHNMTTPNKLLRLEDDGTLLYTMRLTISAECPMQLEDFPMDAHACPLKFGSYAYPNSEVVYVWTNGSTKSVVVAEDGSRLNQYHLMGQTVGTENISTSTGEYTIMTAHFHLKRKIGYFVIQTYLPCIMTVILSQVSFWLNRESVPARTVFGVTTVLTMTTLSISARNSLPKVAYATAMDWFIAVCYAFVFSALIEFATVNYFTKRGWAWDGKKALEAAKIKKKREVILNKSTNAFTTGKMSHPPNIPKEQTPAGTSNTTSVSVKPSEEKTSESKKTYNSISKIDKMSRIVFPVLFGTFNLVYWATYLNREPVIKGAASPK
T1 sequence (P47870 25-512 partner limits assumed): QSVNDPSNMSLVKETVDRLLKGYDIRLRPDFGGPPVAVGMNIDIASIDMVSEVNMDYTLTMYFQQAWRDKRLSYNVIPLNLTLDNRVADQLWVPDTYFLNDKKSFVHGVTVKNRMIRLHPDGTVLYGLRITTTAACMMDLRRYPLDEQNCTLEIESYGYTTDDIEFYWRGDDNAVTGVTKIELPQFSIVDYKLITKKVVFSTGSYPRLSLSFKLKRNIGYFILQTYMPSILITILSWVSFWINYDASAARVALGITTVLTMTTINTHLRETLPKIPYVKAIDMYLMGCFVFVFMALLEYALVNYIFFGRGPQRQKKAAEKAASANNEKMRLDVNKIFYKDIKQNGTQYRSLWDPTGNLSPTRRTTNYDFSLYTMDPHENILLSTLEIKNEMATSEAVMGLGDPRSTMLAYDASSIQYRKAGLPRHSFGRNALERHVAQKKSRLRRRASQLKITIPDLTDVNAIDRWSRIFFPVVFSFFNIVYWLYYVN
T1 sequence (P18507 40-475): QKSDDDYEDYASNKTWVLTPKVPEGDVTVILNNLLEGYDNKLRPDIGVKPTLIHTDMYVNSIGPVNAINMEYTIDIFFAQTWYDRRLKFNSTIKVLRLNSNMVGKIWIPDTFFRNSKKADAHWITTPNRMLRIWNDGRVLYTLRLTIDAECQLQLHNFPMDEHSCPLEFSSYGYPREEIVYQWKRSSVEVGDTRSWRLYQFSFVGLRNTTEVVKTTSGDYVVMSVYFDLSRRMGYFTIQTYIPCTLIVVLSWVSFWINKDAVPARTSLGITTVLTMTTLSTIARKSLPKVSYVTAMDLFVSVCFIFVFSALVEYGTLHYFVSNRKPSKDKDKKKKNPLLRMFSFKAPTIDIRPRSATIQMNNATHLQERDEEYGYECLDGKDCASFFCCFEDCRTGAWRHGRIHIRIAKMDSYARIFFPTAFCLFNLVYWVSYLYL
Sequence of α5β3γ2 GABAA R (P31644 32-462): as the sequence (P31644 32-462) above
Sequence of α5β3γ2 GABAA R (P28472 26-473 partner): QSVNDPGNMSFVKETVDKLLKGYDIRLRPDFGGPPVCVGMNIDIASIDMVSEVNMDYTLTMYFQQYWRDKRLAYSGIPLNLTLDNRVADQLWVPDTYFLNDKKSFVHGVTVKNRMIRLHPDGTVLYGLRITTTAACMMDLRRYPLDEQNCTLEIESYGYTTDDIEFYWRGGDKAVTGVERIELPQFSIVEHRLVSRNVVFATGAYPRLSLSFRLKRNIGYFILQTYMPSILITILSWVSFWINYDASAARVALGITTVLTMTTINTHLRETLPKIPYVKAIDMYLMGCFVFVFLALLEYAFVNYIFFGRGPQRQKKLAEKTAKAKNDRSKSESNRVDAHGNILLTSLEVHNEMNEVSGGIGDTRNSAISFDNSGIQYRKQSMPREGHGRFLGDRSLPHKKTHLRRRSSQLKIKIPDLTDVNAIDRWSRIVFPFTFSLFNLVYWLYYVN
Sequence of α5β3γ2 GABAA R (P18507 40-475): as the sequence (P18507 40-475) above

| Compound | Ki [1] [nM] | activation at 0.1 µM [2, 3] [%] | Ki [1, 4] [nM] | activation at 0.1 µM [2, 5] [%] |
| --- | --- | --- | --- | --- |
| Clc1ccc2c(c1)-c1nn(CC3CCCO3)cc1Cc1c(-c3cnn(Cc4ccccc4)c3)ncn1-2 (stereo not drawn) [Compound 230] | < 100 | 5 to 20 |  |  |
| COc1ccc2c(c1)-c1nn(CC3CCCO3)cc1Cc1c(-c3nc(C(C)C)no3)ncn1-2 (stereo not drawn) [Compound 231] | < 100 | 5 to 20 |  |  |
| COC(C)(C)c1noc(-c2ncn3c2Cc2cn(C)nc2-c2cc(Cl)ccc2-3)n1 [Compound 233] |  |  | < 100 | 5 to 20 |
| CCn1cc2c(n1)-c1cc(OC)ccc1-n1cnc(-c3nc(COC)no3)c1C2 [Compound 236] | < 100 | 20 to 50 |  |  |
| Cn1cc2c(n1)-c1cc(Cl)ccc1-n1cnc(-c3nc(C4COC4)no3)c1C2 [Compound 237] | < 100 | 20 to 50 |  |  |
| COc1ccc2c(c1)-c1nn(C)cc1Cc1c(-c3nc(C4COC4)no3)ncn1-2 [Compound 239] | < 100 | 20 to 50 |  |  |
| CC(C)OCc1noc(-c2ncn3c2Cc2cn(C)nc2-c2cc(Cl)ccc2-3)n1 [Compound 242] | < 100 | 20 to 50 |  |  |
| CCOCc1nc(-c2ncn3c2Cc2cn(C)nc2-c2cc(Cl)ccc2-3)no1 [Compound 243] |  |  | < 100 | 5 to 20 |
| COc1ccc2c(c1)-c1c(cnn1CC1CCCO1)Cc1c(-c3nc(C(C)C)no3)ncn1-2 (stereo not drawn) [Compound 244] | < 100 | 5 to 20 |  |  |
| COc1ccc2c(c1)-c1nn(CC3CCOC3)cc1Cc1c(-c3nc(C(C)C)no3)ncn1-2 (stereo not drawn) [Compound 245] | < 100 | 20 to 50 |  |  |
| COc1ccc2c(c1)-c1nn(C3CCOC3)cc1Cc1c(-c3nc(C4CC4)no3)ncn1-2 (stereo not drawn) [Compound 247] | < 100 | 20 to 50 |  |  |
| CCn1cc2c(n1)-c1cc(OC)ccc1-n1cnc(-c3noc(CN(C)C)n3)c1C2 [Compound 248] | < 100 | 20 to 50 |  |  |
| COc1ccc2c(c1)-c1c(cnn1CC1CCOC1)Cc1c(-c3nc(C4CC4)no3)ncn1-2 (stereo not drawn) [Compound 249] | < 100 | 5 to 20 |  |  |
| Cn1cc2c(n1)-c1cc(Cl)ccc1-n1cnc(-c3nc(CN4CCOCC4)no3)c1C2 [Compound 250] |  |  | < 100 | > 50 |
| CC(C)c1noc(-c2ncn3c2Cc2cn(CC4CCOCC4)nc2-c2cc(Cl)ccc2-3)n1 [Compound 251] |  |  | < 100 | 5 to 20 |
| COc1ccc2c(c1)-c1nn(C)cc1Cc1c(-c3nc([C@H]4CCOC4)no3)ncn1-2 [Compound 252] | < 100 | 20 to 50 |  |  |
| Cn1cc2c(n1)-c1cc(Cl)ccc1-n1cnc(-c3nc([C@H]4CCOC4)no3)c1C2 [Compound 253] | < 100 | 5 to 20 |  |  |
| CCn1cc2c(n1)-c1cc(OC)ccc1-n1cnc(-c3noc(COCC(F)(F)F)n3)c1C2 [Compound 254] | < 100 | 20 to 50 |  |  |
| CCn1cc2c(n1)-c1cc(OC)ccc1-n1cnc(-c3noc(C(C)(C)OC)n3)c1C2 [Compound 255] | < 100 | 5 to 20 |  |  |
| COc1ccc2c(c1)-c1nn(C)cc1Cc1c(-c3noc([C@@H]4CCOC4)n3)ncn1-2 [Compound 256] | < 100 | 5 to 20 |  |  |
| COc1ccc2c(c1)-c1nn(C)cc1Cc1c(-c3noc([C@H]4CCOC4)n3)ncn1-2 [Compound 257] | < 100 | 20 to 50 |  |  |
| COc1ccc2c(c1)-c1nn(C)cc1Cc1c(-c3noc([C@H]4CCCO4)n3)ncn1-2 [Compound 258] | < 100 | 5 to 20 |  |  |
| COc1ccc2c(c1)-c1nn(C)cc1Cc1c(-c3noc([C@@H]4CCCO4)n3)ncn1-2 [Compound 259] | < 100 | 5 to 20 |  |  |
| COc1ccc2c(c1)-c1nn(C)cc1Cc1c(-c3nc([C@@H]4CCOC4)no3)ncn1-2 [Compound 260] | < 100 | 5 to 20 |  |  |
| Cn1cc2c(n1)-c1cc(Cl)ccc1-n1cnc(-c3nc([C@@H]4CCOC4)no3)c1C2 [Compound 261] | < 100 | 5 to 20 |  |  |
| COc1ccc2c(c1)-c1nn(C3CCOC3)cc1Cc1c(-c3nc(C(F)(F)F)no3)ncn1-2 (stereo not drawn) [Compound 263] | < 100 | 5 to 20 |  |  |

| Compound | Ki [1] [nM] | activation at 0.1 µM [2, 3] [%] | Ki [1, 4] [nM] | activation at 0.1 µM [2, 5] [%] |
| --- | --- | --- | --- | --- |
| COc1ccc2c(c1)-c1nn(CC3CCCO3)cc1Cc1c(-c3nc(C(F)(F)F)no3)ncn1-2 (stereo not drawn) [Compound 264] | < 100 | 5 to 20 |  |  |
| CCn1cc2c(n1)-c1cc(Cl)ccc1-n1cnc(-c3nc(CN4CCCC4)no3)c1C2 [Compound 266] |  | 5 to 20 | < 100 |  |
| CCn1cc2c(n1)-c1cc(OC)ccc1-n1cnc(-c3nc(CN4CCCC4)no3)c1C2 [Compound 267] | < 100 | 5 to 20 |  |  |
| CC(C)n1cc2c(n1)-c1cc(Cl)ccc1-n1cnc(-c3noc(C4COCCO4)n3)c1C2 (stereo not drawn) [Compound 268] | < 100 | 20 to 50 |  |  |
| COCc1coc(-c2ncn3c2Cc2cn(C)nc2-c2cc(OC)ccc2-3)n1 [Compound 269] | < 100 | 5 to 20 |  |  |
| COCc1noc(-c2ncn3c2Cc2cn(C4CCOC4)nc2-c2cc(Cl)ccc2-3)n1 (stereo not drawn) [Compound 275] | < 100 | 5 to 20 |  |  |
| Cn1cc2c(n1)-c1cc(Cl)ccc1-n1cnc(-c3nc(CN4CCOCC4)co3)c1C2 [Compound 276] | < 100 | 20 to 50 |  |  |
| CN(C)Cc1coc(-c2ncn3c2Cc2cn(C)nc2-c2cc(Cl)ccc2-3)n1 [Compound 277] | < 100 | 20 to 50 |  |  |
| COc1ccc2c(c1)-c1nn(C3CCOC3)cc1Cc1c(-c3noc(COCC(F)(F)F)n3)ncn1-2 (stereo not drawn) [Compound 279] | < 100 | 20 to 50 |  |  |
| COC(C)(C)c1noc(-c2ncn3c2Cc2cn(CC4CCCO4)nc2-c2cc(Cl)ccc2-3)n1 (stereo not drawn) [Compound 280] | < 100 | 20 to 50 |  |  |
| Clc1ccc2c(c1)-c1nn(CC3CCCO3)cc1Cc1c(-c3nc(C4CCOC4)no3)ncn1-2 (stereo not drawn) [Compound 281] | < 100 | 5 to 20 |  |  |
| COc1ccc2c(c1)-c1nn(C)cc1Cc1c(-c3cnn(Cc4ccccn4)c3)ncn1-2 [Compound 282] | < 100 | 5 to 20 |  |  |
| COc1ccc2c(c1)-c1nn(CC3CCCO3)cc1Cc1c(-c3noc(C(C)(C)OC)n3)ncn1-2 (stereo not drawn) [Compound 283] | < 100 | > 50 |  |  |
| COCc1coc(-c2ncn3c2Cc2cn(C)nc2-c2cc(Cl)ccc2-3)n1 [Compound 284] |  |  | < 100 | > 50 |
| Cn1cc2c(n1)-c1cc(Cl)ccc1-n1cnc(-c3nc(COC4COC4)co3)c1C2 [Compound 285] | < 100 | > 50 |  |  |
| COc1ccc2c(c1)-c1nn(C)cc1Cc1c(-c3ncc(C)o3)ncn1-2 [Compound 286] | < 100 | 5 to 20 |  |  |
| COc1ccc2c(c1)-c1nn(CC3CCOC3)cc1Cc1c(-c3ncc(C)o3)ncn1-2 (stereo not drawn) [Compound 287] |  |  | < 100 | 20 to 50 |
| COCc1noc(-c2ncn3c2Cc2cn(CC4CCCO4)nc2-c2cc(Cl)ccc2-3)n1 (stereo not drawn) [Compound 288] | < 100 | > 50 |  |  |
| COc1ccc2c(c1)-c1nn(C)cc1Cc1c(-c3nnc(C(F)(F)F)o3)ncn1-2 [Compound 289] | < 100 | 5 to 20 |  |  |
| COc1ccc2c(c1)-c1nn(C)cc1Cc1c(-c3nnc(C)o3)ncn1-2 [Compound 290] | < 100 | 20 to 50 |  |  |
| COc1ccc2c(c1)-c1nn(CC3CCCO3)cc1Cc1c(-c3noc(COCC(F)(F)F)n3)ncn1-2 (stereo not drawn) [Compound 292] | < 100 | 5 to 20 |  |  |
| COCc1nc(-c2ncn3c2Cc2cn(CC4CCCO4)nc2-c2cc(OC)ccc2-3)no1 (stereo not drawn) [Compound 293] | < 100 | 20 to 50 |  |  |
| COc1ccc2c(c1)-c1nn(CC3CCCO3)cc1Cc1c(-c3noc(C4COC4)n3)ncn1-2 (stereo not drawn) [Compound 294] | < 100 | > 50 |  |  |
| COc1ccc2c(c1)-c1nn(CC3CCCO3)cc1Cc1c(-c3noc(C(F)(F)F)n3)ncn1-2 (stereo not drawn) [Compound 295] | < 100 | 20 to 50 |  |  |
| COc1ccc2c(c1)-c1nn(C)cc1Cc1c(-c3noc(COC(C)(C)C)n3)ncn1-2 [Compound 296] | < 100 | 20 to 50 |  |  |
